Results as given in US9868726B2, “Pyridyl benzothiophenes as kinase inhibitors” (Allergan, Inc., priority 2014, dated 2018).
pIC50: −log10 of the molar value.

Legend:
VEGFR2 = VEGFR2 (Homo sapiens (Human), UniProt P35968); assay: VEGFR2 Cellular Assay (FLIPR, VEGF induced intracellular calcium in HUVEC)
[1] = target: recombinant human GST-PKR (Homo sapiens (Human), UniProt P19525); assay: PKR KinaseGlo Assay; assay type: biochemical; details: 6.6 uM ATP; read-out: PKR KINASEGLO Enzyme Assay IC50
Chain of recombinant human GST-PKR (P19525 whole entry): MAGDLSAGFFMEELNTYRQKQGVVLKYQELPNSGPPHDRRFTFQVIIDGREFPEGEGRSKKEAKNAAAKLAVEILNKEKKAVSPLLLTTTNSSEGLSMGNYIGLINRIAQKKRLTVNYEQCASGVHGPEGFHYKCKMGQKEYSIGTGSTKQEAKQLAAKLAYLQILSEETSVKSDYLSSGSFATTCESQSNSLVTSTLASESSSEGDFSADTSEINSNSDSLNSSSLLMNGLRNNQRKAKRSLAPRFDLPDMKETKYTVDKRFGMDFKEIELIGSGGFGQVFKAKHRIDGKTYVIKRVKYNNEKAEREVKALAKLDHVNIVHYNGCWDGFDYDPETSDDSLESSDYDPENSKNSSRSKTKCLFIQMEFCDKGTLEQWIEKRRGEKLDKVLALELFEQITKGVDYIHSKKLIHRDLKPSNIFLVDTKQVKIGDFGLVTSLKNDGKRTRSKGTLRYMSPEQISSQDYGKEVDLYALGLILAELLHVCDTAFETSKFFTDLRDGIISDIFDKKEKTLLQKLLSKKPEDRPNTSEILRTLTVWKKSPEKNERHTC
Procedure: Commercially available recombinant human GST-PKR (SignalChem, Canada; 1.5 uM-2 uM stock) is diluted to 500 nM in assay buffer (20 mM Tris-HCl, pH 7.2, 10 mM KCl, 10 mM MgCl2, 10% glycerol). Preactivated PKR is dispensed to 384/96-well black plates at 3.125/12.5 uls/well using the liquid handler Janus. Appropriate dilutions of inhibitors are added to 384/96-well plate followed by 6.6 uM ATP (final) and incubated for 10 minutes at room temperature. The remaining ATP/well is determined by adding 6.25/25 uls/well Kinase-Glo assay mix (Promega) and luminescence is measured on EnVision luminescence plate reader (integration time, 0.2 sec; Perkin-Elmer, Massachusetts, USA). […] IC50 values are determined by plotting % activity versus inhibitor concentration. Curves are fitted using Activity base XLfit (IDBS, UK) using the formula— 4 Parameter Logistic Model fit=(A+((B−A)/(1+(10^((C−x)*D))))) inv=(C−(log(((B−A)/(y−A))−1)/D)) res=(y−fit)

[2] = target: PDGFRβ (cytoplasmic domain PDGFR-b protein) (Homo sapiens (Human), UniProt P09619); assay: PDGFRβ Kinase Assay (biochemical, ELISA); details: 36 μM ATP; read-out: PDGFRβ Enzyme Assay (IC50 nM)
Chain of PDGFRβ (cytoplasmic domain PDGFR-b protein) (P09619 554-1106): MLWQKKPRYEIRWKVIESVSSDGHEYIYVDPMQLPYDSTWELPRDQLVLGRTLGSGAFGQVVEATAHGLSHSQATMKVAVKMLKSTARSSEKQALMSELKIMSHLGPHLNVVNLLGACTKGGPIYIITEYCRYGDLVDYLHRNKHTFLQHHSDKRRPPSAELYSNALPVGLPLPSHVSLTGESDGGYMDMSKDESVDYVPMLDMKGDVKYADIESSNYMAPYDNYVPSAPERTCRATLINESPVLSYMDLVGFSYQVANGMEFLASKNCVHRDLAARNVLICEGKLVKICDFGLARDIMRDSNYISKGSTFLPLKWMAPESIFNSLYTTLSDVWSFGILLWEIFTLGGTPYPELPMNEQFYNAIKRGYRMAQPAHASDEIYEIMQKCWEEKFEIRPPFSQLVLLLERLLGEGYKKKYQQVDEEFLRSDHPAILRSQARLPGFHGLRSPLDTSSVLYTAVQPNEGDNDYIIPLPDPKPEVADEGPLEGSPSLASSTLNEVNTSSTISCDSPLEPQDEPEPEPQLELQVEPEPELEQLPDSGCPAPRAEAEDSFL

[3] = target: VEGFR2 (cytoplasmic domain KDR protein) (Homo sapiens (Human), UniProt P35968); assay: VEGFR2 Kinase Assay (biochemical KDR kinase assay, ELISA); details: read-out: VEGFR2 Enzyme Assay (IC50 nM); 2.7 μM ATP
Chain of VEGFR2 (cytoplasmic domain KDR protein) (P35968 786-1356): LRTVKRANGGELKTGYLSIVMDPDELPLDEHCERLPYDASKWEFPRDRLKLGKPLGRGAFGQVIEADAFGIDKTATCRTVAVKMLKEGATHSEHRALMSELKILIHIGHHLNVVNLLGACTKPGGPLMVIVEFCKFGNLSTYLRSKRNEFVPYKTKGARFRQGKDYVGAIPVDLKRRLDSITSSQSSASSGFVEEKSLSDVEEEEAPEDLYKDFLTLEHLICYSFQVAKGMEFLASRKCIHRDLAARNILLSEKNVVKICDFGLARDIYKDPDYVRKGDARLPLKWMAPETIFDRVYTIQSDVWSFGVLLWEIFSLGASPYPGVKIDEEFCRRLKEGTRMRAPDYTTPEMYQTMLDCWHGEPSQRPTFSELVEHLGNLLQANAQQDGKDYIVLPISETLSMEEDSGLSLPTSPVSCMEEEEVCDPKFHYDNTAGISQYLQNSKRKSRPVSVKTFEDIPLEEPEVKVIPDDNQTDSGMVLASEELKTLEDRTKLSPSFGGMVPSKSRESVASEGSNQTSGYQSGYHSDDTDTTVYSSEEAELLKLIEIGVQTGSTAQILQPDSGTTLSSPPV

PDGFRβ = PDGFRβ (Homo sapiens (Human), UniProt P09619); assay: PDGFRβ Cellular Assay (FLIPR, PDGF-induced intracellular calcium in NHDF-Ad)
Chain of PDGFRβ (P09619 33-1106): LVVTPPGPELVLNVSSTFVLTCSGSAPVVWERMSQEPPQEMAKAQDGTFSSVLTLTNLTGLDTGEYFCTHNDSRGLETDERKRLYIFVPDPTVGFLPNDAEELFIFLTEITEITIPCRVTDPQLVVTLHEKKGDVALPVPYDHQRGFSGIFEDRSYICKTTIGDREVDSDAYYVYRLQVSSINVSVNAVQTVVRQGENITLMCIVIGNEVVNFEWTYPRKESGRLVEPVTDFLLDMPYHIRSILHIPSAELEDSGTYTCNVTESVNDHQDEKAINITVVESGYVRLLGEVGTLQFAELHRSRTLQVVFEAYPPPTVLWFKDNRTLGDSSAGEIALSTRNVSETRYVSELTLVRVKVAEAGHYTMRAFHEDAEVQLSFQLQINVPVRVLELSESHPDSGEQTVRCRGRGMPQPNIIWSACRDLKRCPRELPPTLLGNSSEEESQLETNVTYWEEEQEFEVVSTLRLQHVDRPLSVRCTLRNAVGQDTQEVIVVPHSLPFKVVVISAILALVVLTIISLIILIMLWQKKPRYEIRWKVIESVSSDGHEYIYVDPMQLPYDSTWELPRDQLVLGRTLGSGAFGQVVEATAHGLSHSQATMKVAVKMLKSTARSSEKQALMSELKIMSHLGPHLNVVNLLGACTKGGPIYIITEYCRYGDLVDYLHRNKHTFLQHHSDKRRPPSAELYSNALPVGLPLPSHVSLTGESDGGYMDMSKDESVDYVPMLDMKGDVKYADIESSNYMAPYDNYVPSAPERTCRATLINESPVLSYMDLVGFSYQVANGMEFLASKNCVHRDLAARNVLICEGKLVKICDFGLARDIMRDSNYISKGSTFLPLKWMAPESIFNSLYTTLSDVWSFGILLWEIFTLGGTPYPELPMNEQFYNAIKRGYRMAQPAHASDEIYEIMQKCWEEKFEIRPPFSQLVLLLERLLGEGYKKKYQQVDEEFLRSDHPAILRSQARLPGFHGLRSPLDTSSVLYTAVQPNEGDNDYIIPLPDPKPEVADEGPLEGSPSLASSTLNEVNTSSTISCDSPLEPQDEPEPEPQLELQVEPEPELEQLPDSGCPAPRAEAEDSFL

Chain of VEGFR2 (P35968 20-1356): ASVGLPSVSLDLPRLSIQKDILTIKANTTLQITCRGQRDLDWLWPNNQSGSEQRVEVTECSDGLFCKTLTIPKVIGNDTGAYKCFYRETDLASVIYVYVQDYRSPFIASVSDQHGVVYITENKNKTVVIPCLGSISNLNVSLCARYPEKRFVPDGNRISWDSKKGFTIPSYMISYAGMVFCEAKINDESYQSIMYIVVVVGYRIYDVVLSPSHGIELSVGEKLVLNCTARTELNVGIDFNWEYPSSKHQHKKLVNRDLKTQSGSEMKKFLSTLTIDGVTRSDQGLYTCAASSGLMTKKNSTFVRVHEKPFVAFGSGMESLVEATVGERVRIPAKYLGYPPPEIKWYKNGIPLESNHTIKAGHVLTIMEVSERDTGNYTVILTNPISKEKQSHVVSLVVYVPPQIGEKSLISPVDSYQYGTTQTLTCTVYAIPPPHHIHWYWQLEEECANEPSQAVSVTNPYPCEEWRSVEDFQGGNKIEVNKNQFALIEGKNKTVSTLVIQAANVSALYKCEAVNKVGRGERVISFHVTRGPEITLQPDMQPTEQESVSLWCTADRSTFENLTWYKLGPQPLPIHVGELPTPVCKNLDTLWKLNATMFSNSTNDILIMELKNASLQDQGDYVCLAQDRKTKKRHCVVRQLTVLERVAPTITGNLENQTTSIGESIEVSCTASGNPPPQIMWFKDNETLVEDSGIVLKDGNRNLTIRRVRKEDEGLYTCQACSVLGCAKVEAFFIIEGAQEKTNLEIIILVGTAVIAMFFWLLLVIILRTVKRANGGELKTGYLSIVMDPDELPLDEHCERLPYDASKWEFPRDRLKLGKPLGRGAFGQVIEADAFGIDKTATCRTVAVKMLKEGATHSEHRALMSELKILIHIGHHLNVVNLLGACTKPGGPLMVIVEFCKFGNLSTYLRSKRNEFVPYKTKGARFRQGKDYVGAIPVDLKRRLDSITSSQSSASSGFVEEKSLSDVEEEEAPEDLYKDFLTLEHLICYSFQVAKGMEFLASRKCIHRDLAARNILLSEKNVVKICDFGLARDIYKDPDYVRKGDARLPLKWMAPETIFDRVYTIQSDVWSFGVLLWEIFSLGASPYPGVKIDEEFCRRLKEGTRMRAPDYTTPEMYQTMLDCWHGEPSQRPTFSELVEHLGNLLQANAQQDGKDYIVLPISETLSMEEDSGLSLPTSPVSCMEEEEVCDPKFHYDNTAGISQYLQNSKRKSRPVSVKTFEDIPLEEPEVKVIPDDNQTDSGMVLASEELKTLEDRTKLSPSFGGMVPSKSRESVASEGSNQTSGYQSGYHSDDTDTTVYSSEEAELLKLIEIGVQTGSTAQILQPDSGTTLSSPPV

| SMILES | pIC50 (VEGFR2) | pIC50 [1] | IC50 [2] | IC50 [3] | pIC50 (PDGFRβ) |
| --- | --- | --- | --- | --- | --- |
| CS(C)(=O)=NC(=O)c1cnc(N)c(-c2cc3cc(NC(=O)Nc4cc(C(F)(F)F)ccc4F)ccc3s2)c1 [Example 6, 6-amino-N-[dimethyl(oxido)-λ^4-sulfanylidene]-5-{5-[({[2-fluoro-5-(trifluoromethyl)phenyl]amino}carbonyl)amino]-1-benzothien-2-yl}nicotinamide] | 8.30 | 6.78 | 27 nM | 6 nM | – |
| CS(C)(=O)=NC(=O)c1cnc(N)c(-c2cc3cc(NC(=O)Nc4ccc(Cl)c(C(F)(F)F)c4)ccc3s2)c1 [Example 5, 6-amino-5-{5-[({[4-chloro-3-(trifluoromethyl)phenyl]amino}carbonyl)amino]-1-benzothien-2-yl}-N-[dimethyl(oxido)-λ^4-sulfanylidene]nicotinamide] | 7.96 | 7.16 | 21 nM | 6 nM | – |
| CS(C)(=O)=NC(=O)c1cncc(-c2cc3cc(NC(=O)Nc4ccc(Cl)c(C(F)(F)F)c4)ccc3s2)c1 [Example 58, 5-{5-[({[4-chloro-3-(trifluoromethyl)phenyl]amino}carbonyl)amino]-1-benzothien-2-yl}-N-[dimethyl(oxido)-Δ^4-sulfanylidene]nicotinamide] | – | 6.41 | – | 14 nM | – |
| COP(=O)(OC)c1cnc(N)c(-c2ccc(NC(=O)Nc3cccc(C(F)(F)F)c3)cc2)c1 [Example 64, dimethyl (6-amino-5-(4-(3-(3-(trifluoromethyl)phenyl)ureido)phenyl)pyridin-3-yl)phosphonate] | – | – | – | – | 7.18 |
| CS(C)(=O)=NC(=O)c1cncc(-c2cc3cc(NC(=O)Nc4cc(C(F)(F)F)ccc4F)ccc3s2)c1 [Example 57, N-[dimethyl(oxido)-λ^4-sulfanylidene]-5-{5-[({[2-fluoro-5-(trifluoromethyl)phenyl]amino}carbonyl)amino]-1-benzothien-2-yl}nicotinamide] | – | 6.26 | – | 7 nM | – |
